Assay results taken from patent publication EP4232018B1 (priority 2020, dated 2022).
Entries after “also recorded” stand apart in the source; their conditions may differ.

How the values were obtained:
[1] = tested on: African swine fever virus; type: cell-based
SARS-CoV-2 = type: cell-based

Compound | effect on cell viability (A549 NSCLC cells) | inhibiting African swine fever virus [1] | viral multiplication (rosetta) [1] | inhibition of the SARS-CoV-2 reporter gene (SARS-CoV-2)
Cc1ccc(C(C)C)cc1OC(=O)C[N+](C)(C)CCCCCCCCCC[N+](C)(C)CC(=O)Oc1cc(C(C)C)ccc1C.[Cl-].[Cl-] [Compound IV, N1,N10-bis(2-(5-isopropyl-2-methylphenoxy)-2-oxoethyl)-N1,N1,N10,N10-tetramethyldecane-1,10-diaminium dichloride] | does not affect cell viability | effective at inhibiting African swine fever virus | Cells grew well and were protected from African swine fever virus infection. No rosetta were observed; also recorded: Cells grew well, but protection against ASFV infection decreased and some rosetta became visible | inhibits the SARS-CoV-2 reporter gene in a dose dependent manner
Cc1ccc(C(C)C)c(OC(=O)C[N+](C)(C)CCCCCCCCCC[N+](C)(C)CC(=O)Oc2cc(C)ccc2C(C)C)c1.[Cl-].[Cl-] [Compound V, N1,N10-bis(2-(2-isopropyl-5-methylphenoxy)-2-oxoethyl)-N1,N1,N10,N10-tetramethyldecane-1,10-diaminium dichloride] | – | effective at inhibiting African swine fever virus | Cells grew well and were protected from African swine fever virus infection. No rosetta were observed; also recorded: Cells grew well, but protection against ASFV infection decreased and some rosetta became visible | –
